Test results published in patent publication US10106539B2, “Spiro-indolines for the treatment and prophylaxis of respiratory syncytial virus infection (RSV)” (REVIRAL LIMITED, priority 2014, dated 2018).

Assays:
RSV fusion (A2_F) = target: T1, RSV fusion (A2_F) (Human respiratory syncytial virus A, UniProt P03420); assay: RSV fusion assay (luciferase reporter, transfected HEK 293T/17 cells); type: cell-based
T1 construct: expressed in transfected cells; host or cells: HEK 293T/17
Experimental: HEK 293T/17 cells were cultured in T75 culture flasks in Dulbecco's medium containing 10% FBS and 1× Penicillin-Streptomycin and warmed to 37° C. prior to use. The cells were passaged by first washing briefly with 3 ml PBS followed by a 4 min incubation with […] at 37° C. 7 ml media was then added to the flask and the cells dispersed via pipetting (×3) against the bottom of the flask. Two further T75 flasks were each seeded with 2×10^6 cells in 15 ml fresh media.
Cells were seeded on the T75 plates at the same density as on the 6-well plates to the area of a T75 flask and one 1.75 cm radius well from a 6-well plate were compared. 7.79×2 ml of 3×10^5 cells ml^−1 was used to seed a single T75 flask.
HEK cells were removed from a T75 flask as described above. The cells were counted and diluted to 3×10^5 cells/ml in fresh media. Two T75 flasks were each seeded with 15.58 ml diluted cells.
The plasmid DNA (for pFR-Luc and pcDNA3.1_Gal4/NFκB) to be transfected into the HEK cells was first prepared in serum free media (DMEM+Pen/Strep) containing the transfection reagent Fugene 6 (Promega). Transfections were set up as follows (Luc=pFR_Luc, Gal4=pcDNA3.1+_Gal4/NFκB, A2_F=pcDNA3.1+_A2_F)
Serum free media was placed in a 1.5 ml eppendorf tube then the fugene 6 was added into the media. The tube was vortexed for 1 s before being incubated at RT for 5 min. The plasmid DNA was then added to the tube, vortexed for 1 s, then incubated at RT for 15 min
The transfection reagents were then added to the appropriate T75 flask by tipping the flask on end and adding the reagents directly to the media already in the flask. […]
Luminescence was measured at appropriate time points as follows:
Media was discarded into Virkon and the plates washed with 100 ul PBS per well. […] Add 100 μl working luciferin buffer to each well and luminescence was measured immediately.
Media was discarded into Virkon and 100 ul SFM+20 ul CellTitre-Blue solution was added to each well. […] Resorufin fluorescence was measured at 590 nm.

[1] = Liver microsomal stability, human; type: in vitro ADME; details: both sexes, pH 7.4, human liver microsomes
Experimental: (§1) Microsomal Incubation: Experimental Procedure
(§2) Pooled human liver microsomes (pooled male and female), pooled rat liver microsomes (male Sprague Dawley rats) and pooled dog liver microsomes (male Beagle dog) are purchased from a reputable commercial supplier and stored at −80° C. prior to use.
(§3) Microsomes (final protein concentration 0.5 mg/mL), 0.1 M phosphate buffer pH 7.4 and test compound (final substrate concentration 3 μM; final DMSO concentration 0.25%) are pre-incubated at 37° C. prior to the addition of NADPH (final concentration 1 mM) to initiate the reaction. The final incubation volume is 50 μL. A control incubation is included for each compound tested where 0.1 M phosphate buffer pH 7.4 is added instead of NADPH (minus NADPH). Two control compounds are included with each species. All incubations are performed singularly for each test compound.
(§4) Compounds are incubated for 0, 5, 15, 30 and 45 min. The control (minus NADPH) is incubated for 45 min only. The reactions are stopped by transferring 25 μL of incubate to 50 μL methanol at the appropriate time points. The termination plates are centrifuged at 2,500 rpm for 20 min at 4° C. to precipitate the protein. Following protein precipitation, the sample supernatants are combined in cassettes of up to 4 compounds, internal standard is added and samples analysed by LC-MS/MS. From a plot of ln peak area ratio (compound peak area/internal standard peak area) against time, the gradient of the line is determined. Subsequently, half-life and intrinsic clearance are calculated

[2] = Liver microsomal stability, dog; type: in vitro ADME; details: male, Beagle, pooled liver microsomes, pH 7.4, Comparative Example 2, read-out: Liver Microsomal Stability T1/2, dog (Table 5)
Experimental: as §1, §2, §3, §4

RSV = RSV plaque reduction assay (Comparative Example 1, strain not stated); type: cell-based; details: human respiratory syncytial virus; read-out: RSV Plaque Reduction assay IC50 (Table 4)
Experimental: Plaque Reduction Assay: […] After an overnight incubation at 37° C. in a humidified 5% CO2 atmosphere, the monolayer of cells should be approximately 90% confluent. Antiviral compounds were titrated in pre-warmed Serum Free (SF) Optimem in a U-bottom 96 well plate. […] Media was then removed from cells and replaced with PBS (100 μl/well). RSV stock was thawed and diluted in SF Optimem media to 4000 PFU/mLl. An equal volume of virus was added to compounds on the titration plate. PBS was removed from cells which were then inoculated with the virus/compound solution (50 μL/well). Cells were incubated for 2 h in a 37° C.+5% CO2 humidified incubator to allow infection. […] Cells were subsequently incubated for 48 h at 37° C.+5% CO2 in a humidified incubator. Immunostaining Procedure: Media was removed from cells and the monolayer washed with PBS. Cells were fixed with ice cold 80% Acetone in PBS (100 μl/well) for 20 mins at −20° C. […] Blocking solution was removed and plates washed once with PBS-T. Primary antibody in blocking solution was added to plates (50 μl/well) and incubated for 1 h at 37° C. Plates were then washed 3 times with PBS-T. Secondary antibody in blocking solution was added to plates (50 μL/well) and incubated for 1 h at 37° C. in the dark. […] Data Analysis: Images obtained were saved and plaque numbers counted with the aid of computer imaging software. […]

T1 sequence (P03420 26-109): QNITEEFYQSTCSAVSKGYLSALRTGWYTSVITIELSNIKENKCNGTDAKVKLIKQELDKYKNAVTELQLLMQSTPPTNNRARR
T1 sequence (P03420 137-574): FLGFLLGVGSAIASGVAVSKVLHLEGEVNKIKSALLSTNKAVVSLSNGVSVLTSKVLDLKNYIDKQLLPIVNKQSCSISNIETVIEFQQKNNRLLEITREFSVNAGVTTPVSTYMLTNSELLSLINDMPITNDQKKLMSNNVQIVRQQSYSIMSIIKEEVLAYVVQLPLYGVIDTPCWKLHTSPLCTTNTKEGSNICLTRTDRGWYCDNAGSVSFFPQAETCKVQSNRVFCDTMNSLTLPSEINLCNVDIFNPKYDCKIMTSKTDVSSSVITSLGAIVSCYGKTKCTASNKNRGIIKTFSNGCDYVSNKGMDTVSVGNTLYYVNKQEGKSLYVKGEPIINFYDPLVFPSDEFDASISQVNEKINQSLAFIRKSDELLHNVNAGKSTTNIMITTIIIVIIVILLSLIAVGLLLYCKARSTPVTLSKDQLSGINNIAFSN

SMILES	IC50 (RSV fusion (A2_F))	half-life at 3 μM ([1]; Comparative Example 2, read-out: Liver Microsomal Stability T1/2, human (Table 5))	half-life at 3 μM [2]	IC50 (RSV)	IC90 (RSV fusion (A2_F); HEK293T/17, read-out: RSV Fusion Assay IC90)	half-life at 3 μM ([1]; 3 μM compound, read-out: Liver Microsomal Stability T1/2, human)
CC(C)CCn1c(CN2C(=O)C3(CC3)c3ccccc32)nc2cc(CN)ccc21 [RV039, 1′-((5-(aminomethyl)-1-isopentyl-1H-benzo[d]imidazol-2-yl)methyl)spiro[cyclopropane-1,3′-indolin]-2′-one, reference compound]	10 nM	5 min	> 100 min	31 nM		
NCc1ccc2c(c1)nc(CN1C(=O)C3(CC3)c3ccc(F)cc31)n2CCCC(F)(F)F [Example 1, 1′-{[5-(Aminomethyl)-1-(4,4,4-trifluorobutyl)-1H-1,3-benzodiazol-2-yl]methyl}-6′-fluoro-1′,2′-dihydrospiro[cyclopropane-1,3′-indole]-2′-one]	1.1 nM				9.4 nM	32 min
